Reference: patent US20050037033A1, “Microbicidal compositions and methods and use” (priority 2003, published 2005)

Experiments:
[1] = test system: Bacteroides thetaiotaomicron; experiment: Anaerobe inhibition assay; assay type: cell-based; conditions: 1 strain, read-out: Minimum Inhibitory Concentrations (MICs)
Experimental: Working in an anaerobic chamber, the anaerobes were suspended into brucella broth to the turbidity of the 0.5 McFarland standard and pipetted into the wells of the Steers replicator head, removed from the chamber and stamped onto the supplemented Brucella agar plates containing the serial dilutions of the antimicrobials and the growth control plates. The final inoculum was 10^5 cfu/spot.
(§1) The anaerobes were incubated in an anaerobic chamber at 37° C. for 2 days; aerobes were incubated in ambient air at 36° C. for 20h.

spermatozoa = experiment: Sperm immobilization assay; assay type: cell-based
Experimental: To assess sperm-immobilizing activity, compounds were incubated with sperm for 30 seconds in two fold serial dilutions. Those dilutions that immobilized all screened spermatozoa were further diluted several times in buffer and incubated at 37° C., 5% CO2, for 1 h, to verify any possible recovery of motility. Only those dilutions (compound concentrations) that immobilized all spermatozoa with no recovery of motility were considered “positive” and used to calculate the compound's minimum effective concentration (MEC).

Eubact lentum = experiment: Anaerobe inhibition assay; assay type: cell-based; conditions: 2 strains, read-out: Minimum Inhibitory Concentrations (MICs)
Prevotella disiens = experiment: Anaerobe inhibition assay; assay type: cell-based; conditions: 2 strains, read-out: Minimum Inhibitory Concentrations (MICs)
Porphyromonas levii = experiment: Anaerobe inhibition assay; assay type: cell-based; conditions: 2 strains, read-out: Minimum Inhibitory Concentrations (MICs)
Fuso. nucleatum = experiment: Anaerobe inhibition assay; assay type: cell-based; conditions: Fusobacterium nucleatum, 2 strains, read-out: Minimum Inhibitory Concentrations (MICs)
HSV-2 [2] = experiment: HSV-2 viral binding inhibition assay; assay type: cell-based; conditions: Human alphaherpesvirus 2; Vero cells, plaque assay
Experimental: Confluent Vero cells were incubated with different concentrations of ciclopiroxolamine at 37° C. for 1 hour. 200 pfu of HSV-2 were then added to the cells in the presence of test compound and the cells were incubated at 37° C. for 1 hour. The infected cells were washed with PBS and overlaid with methylcellulose (no drug) for a plaque assay.

[3] = test system: N. gonorrheae, strain ms11a; experiment: Neisseria gonorrhea inhibition assay; assay type: cell-based; conditions: gonococcal agar, overnight, colonies counted
Experimental: Compound was incorporated into gonococcal agar, the agar/agent mixture was poured on culture dishes and inoculated with N. gonorrheae, strain ms11a (10 μl of each dilution: 10^−1 to 10^−5 of a starting 0.5 Mcfarland solution which is equal to 1.5×10^8 colony forming units (cfu)/ml). The plates were incubated overnight (20-22 hours) and the colonies counted.

HIV = experiment: Cell-free inactivation assay; assay type: cell-based; conditions: virus incubated with product for 2 minutes
Experimental: Cell-free inactivation assay: Virus was incubated with product for 2 minutes, a series of 10-fold dilutions were made, each dilution was added to the host cells and viral infectivity was measured.

Gardnerella vaginalis = experiment: Anaerobe inhibition assay; assay type: cell-based; conditions: 2 strains, read-out: Minimum Inhibitory Concentrations (MICs)
Peptostrep tetradius = experiment: Anaerobe inhibition assay; assay type: cell-based; conditions: 1 strain, read-out: Minimum Inhibitory Concentrations (MICs)
Peptostrep anaerobius = experiment: Anaerobe inhibition assay; assay type: cell-based; conditions: 1 strain, read-out: Minimum Inhibitory Concentrations (MICs)
Mobiluncus mulieris = experiment: Anaerobe inhibition assay; assay type: cell-based; conditions: 2 strains, read-out: Minimum Inhibitory Concentrations (MICs)
[4] = test system: Gardnerella vaginalis, Mobiluncus spp., Bacteroides spp., Clostridium perfringes, Fusobacterium nucleatum, Peptostreptococcus spp., Porphyromonas spp., and …; experiment: Anaerobe inhibition assay, all anaerobes tested; assay type: cell-based
[5] = test system: HIV-1 strain BaL (R5 strain); experiment: Viral entry/binding inhibition assay (VBI), strain BaL; assay type: cell-based; conditions: Human immunodeficiency virus 1, Series 2, P4-R5 cells, 2 hour incubation, read-out: 50% Effective Concentrations (IC50)
Experimental: Viral entry inhibition assay (VBI): Cell-free HIV-1 (strain III-B: X4 strain; or strain BaL: R5 strain) was incubated with compound and P4-R5 cells for 2 hours at 37° C., followed by washing and 48 hour incubation.

[6] = test system: Peptostrep asaccharolyticus; experiment: Anaerobe inhibition assay; assay type: cell-based; conditions: 2 strains
HSV-2 [7] = experiment: HSV-2 virucidal assay; assay type: cell-based; conditions: Human alphaherpesvirus 2, 1 h, at 400 μg/ml (highest concentration tested); 60 min at 37° C.
Experimental: The virucidal activities of ciclopiroxolamine against HSV-2 were tested by mixing various concentrations of the test compound with 2×10^5 PFU of HSV-2, respectively, and incubating at 37° C. for 60 min. The culture medium was included as a […] control. At the end of incubation, the mixtures were diluted 1 in 1000 with culture medium. The infectivity of treated virus was determined by a standard viral plaque assay. Briefly, confluent Vero cells were washed with PBS and subsequently infected with 1 ml of treated mixture at 37° C. for 1 h. After viral inoculum was removed, the infected cells were washed with PBS and overlaid with 0.5% methylcellulose in culture medium. The infected cells were incubated at 37° C. for 2 days to allow the plaques to develop.

[8] = test system: Lactobacilli (L. jensii, L. gasseri, L. acidophilus, L. salivarius); experiment: Lactobacillus Steers time-kill (TK) assay, all strains; assay type: cell-based
C. glabrata = experiment: Aerobe inhibition assay; assay type: cell-based, Candida glabrata; conditions: Nakaseomyces glabratus; 3 strains; read-out: Minimum Inhibitory Concentrations (MICs)
Experimental: The aerobic organisms were suspended into saline to the turbidity of the 0.5 McFarland standard, diluted 1:10, pipetted into the wells of the Steers replicator head, and stamped onto the Mueller Hinton agar plates containing the serial dilutions of the antimicrobials.
as §1

[9] = test system: Prevotella melaninogenica; experiment: Anaerobe inhibition assay; assay type: cell-based; conditions: 2 strains, read-out: Minimum Inhibitory Concentrations (MICs)
HIV-IRF = experiment: PV-L assay (virus mixed with compound, then cells, no washing); assay type: cell-based; conditions: Human immunodeficiency virus 1, PM1, Series 1, PV-L: HIV-IRF mixed with compound 1 hour, then PM-1 cells, 8 days, reverse transcriptase activity, read-out: 50% Effective Concentrations (IC50)
Experimental: PV-L assay: Immobilized virus (HIV-IRF; 10^3 TCID50) was mixed with compound for 1 hour at 37° C. before addition of indicator T cells (PM-1; 10^5/well) and incubated for 8 days (no washing).
In each of the assays above, viral replication was monitored after 8 days by measuring reverse transcriptase activity.

## Cc1cc(C2CCCCC2)n(O)c(=O)c1.NCCO [CO, 6-Cyclohexyl-1-hydroxy-4-methyl-2-(1H)-pyridone ethanolamine salt]
[1]
  MIC: 40 µg/mL
spermatozoa
  cytotoxicity towards spermatozoa: very little cytotoxicity towards spermatozoa
spermatozoa; 30 seconds incubation with sperm
  Sperm immobilization activity, MEC (minimum effective concentration): MEC: 1,200-8,800 μg/ml
Eubact lentum
  MIC: 40 µg/mL
Prevotella disiens
  MIC: 40 µg/mL
Porphyromonas levii
  MIC: 40 µg/mL
Fuso. nucleatum
  MIC: 40 µg/mL
HSV-2 [2]
  IC50: 153 µg/mL
[3]
  IC50: 1 µg/mL
HIV; At 0.09%
  log reduction (viral infectivity): At 0.09%: ≧2.0 log
HIV; At 0.3%
  log reduction (viral infectivity): At 0.3%: ≧2.7 log
Gardnerella vaginalis
  MIC: 80 µg/mL
Peptostrep tetradius
  MIC: 40 µg/mL
Peptostrep anaerobius
  MIC: 40 µg/mL
Mobiluncus mulieris
  MIC: 40 µg/mL
[4]
  minimal inhibitory concentrations (MICs), range over all anaerobes tested: 40 to 80 µg/mL
[5]
  IC50: 6.9 µg/mL
[6]
  Minimum Inhibitory Concentrations (MICs): 80 µg/mL
[6]; read-out: Minimum Inhibitory Concentrations (MICs)
  MIC: 40 µg/mL
HSV-2 [7]
  inhibition at 400 µg/mL: 40%
[8]
  effect on lactobacilli (summary in words): inhibits the growth of lactobacilli but does not kill them
C. glabrata
  MIC: 20 µg/mL
[9]
  MIC: 40 µg/mL
HIV-IRF
  IC50: 1.46 µg/mL
